According to US20060154990A1, “Use of MEK inhibitors in treating abnormal cell growth” (AGOURON PHARMACEUTICALS, INC., priority 2004, published 2006):
pIC50: −log10 of the molar value. Values joined by “and” are separate entries in the source; they are usually repeats but may differ in a detail not shown here. Equal entries are not always repeated. Marks after values point to notes of the source that are not given here.

Legend:
[1] = Metabolites of [14C] Compound 1 in liver microsomes; format: in vitro ADME, monkey; details: [C-14] Compound 1 10 μM, 90 mins
Description: (§1) Incubations were performed in hepatocytes for 3 hours and liver microsomes for 1.5 hours and were stopped with the addition of methanol. HPLC, in conjuction with ionspray 3D iontrap mass spectrometry, and simultaneous radioactive monitoring were used to detect and identify the resulting metabolites.
This acid cleavage product is further metabolized to form hydroxylated (M 11, 16% in rat) and hydroxylated, defluorinated products (M 17, 19% in rat).

[2] = Plasma concentrations associated with antitumor efficacy in mice; format: in vivo; details: mouse, oral, C26 and ZR-75-1 tumor models in mice
[3] = Metabolites of [14C] Compound 1 in cryopreserved hepatocytes; format: in vitro ADME, human; details: [C-14] Compound 1 10 μM, 180 mins
Description: as §1
(§2) Metabolite identification of radiolabeled Compound 1 was performed after incubation with rat, dog, monkey and human cryopreserved hepatocytes and liver microsomes. […] Besides glucuronidation, metabolites derived from other clearance pathways are also observed. For instance, M 15 (acid cleavage product) accounts for 11% of the total radioactivity in the human chromatogram.

[4] = test system: C26 mouse colon carcinoma; assay: Antitumor activity against C26 mouse colon carcinoma
HT-29 colon xenograft = assay: Antitumor activity in HT-29 tumor model; format: in vivo, mice; details: oral 25 mg/kg once a day for 14 days
[5] = test system: ERK phosphorylation in MDCK cells; assay: cells; details: Canis lupus familiaris, 1 h, read-out: Cellular IC50
[6] = Pilot food effect assessment of plasma pharmacokinetics; details: for AUC(0-24) Change % / Cmax Change %: fed versus fasted; for Cmax / Tmax / AUC(0-t): human, plasma, oral
Description: A pilot food effect evaluation was conducted on Day 1 of Cycle 1 (ClDl) and Day 1 of Cycle 2 (C1D2).

H23 NSCL xenograft = assay: Antitumor activity in H23 tumor model; format: in vivo, mice; details: oral 25 mg/kg once a day for 14 days
[7] = test system: ERK phosphorylation in tumor cells; assay: ERK phosphorylation in tumor cells grown in culture with 10% serum; format: cell-based; details: read-out: IC50, reducing ERK phosphorylation
[8] = Metabolites of [14C] Compound 1 in cryopreserved hepatocytes; format: in vitro ADME, rat; details: [C-14] Compound 1 10 μM, 180 mins
Description: as §1, §2

[9] = C26, MTD 25 mg/kg/d oral 14 days
[10] = C26, oral BID D9-22, 1.56 mg/kg/dose
[11] = C26, oral BID D9-22, 3.125 mg/kg/dose
[12] = C26, oral BID D9-22, 6.25 mg/kg/dose
[13] = C26, oral BID D9-22, 12.5 mg/kg/dose
[14] = C26, oral BID D9-22, 12.5 mg/kg/dose (toxic)
[15] = C26, oral QD D9-22, 3.125 mg/kg/dose
[16] = C26, oral QD D9-22, 6.25 mg/kg/dose
[17] = C26, oral QD D9-22, 12.5 mg/kg/dose
[18] = C26, oral QD D9-22, 25 mg/kg/dose
[19] = C26 colon, oral 25 mg/kg once a day for 14 days
[20] = Colon26, 25 mg/kg PO QD Days 11-24 (MTD)
[21] = Colon26, 100 mg/kg IV QD Days 8-12, 15-19 (MTD)

## O=C(NOC[C@H](O)CO)c1ccc(F)c(F)c1Nc1ccc(I)cc1F [Compound 1, N-[(R)-2,3-dihydroxy-propoxy]-3,4-difluoro-2-(2-fluoro-4-iodo-phenylamino)-benzamide]
[1]
  % ROI Monkey: 71.38%
[2]; read-out: lowest plasma AUC(0-24) associated with meaningful in vivo antitumor efficacy
  AUC(0-t): 1180 to 1880 ng·h/mL
[2]; read-out: lowest plasma Cmax associated with meaningful in vivo antitumor efficacy
  Cmax: 260 to 428 ng/mL
[3]
  % ROI Human: 15.68%
[4]; [9]
  animals showing complete response: 70%
  animals showing either a complete or partial response: 100%
  animals showing partial response: 30%
[4]; [10]
  CR (complete response): 4 of 5 and 4/5
  Net Log10 kill: 0.0
  Non-specific Deaths: 0/5
  PR (partial response): 1/5
  T − C: 13.1 days
  Tumor Free: 0/5
[4]; [11]
  CR (complete response): 4/5
  Net Log10 kill: 0.3
  Non-specific Deaths: 0/5
  PR (partial response): 1/5
  T − C: 15.2 days
  Tumor Free: 0/5
[4]; [12]
  CR (complete response): 5/5
  Net Log10 kill: 0.3
  Non-specific Deaths: 0/5
  PR (partial response): 0/5
  T − C: 15.7 days
  Tumor Free: 0/5
[4]; [13]
  Net Log10 kill: Toxic
  Non-specific Deaths: 4/5^h
  T − C: Toxic
  Tumor Free: Toxic
[4]; [14]
  CR (complete response): 5/5 Toxic
  PR (partial response): 0/5 Toxic
[4]; [15]
  CR (complete response): 1 of 5 and 1/5
  Net Log10 kill: −0.1
  Non-specific Deaths: 0/5
  PR (partial response): 4/5
  T − C: 12.1 days
  Tumor Free: 0/5
[4]; [16]
  CR (complete response): 3/5
  Net Log10 kill: 0.0
  Non-specific Deaths: 0/5
  PR (partial response): 2/5
  T − C: 12.9 days
  Tumor Free: 0/5
[4]; [17]
  CR (complete response): 5/5
  Net Log10 kill: 0.2
  Non-specific Deaths: 0/5
  PR (partial response): 0/5
  T − C: 15.0 days
  Tumor Free: 0/5
[4]; [18]
  CR (complete response): 5/5
  Net Log10 kill: 0.3
  Non-specific Deaths: 0/5
  PR (partial response): 0/5
  T − C: 15.3 days
  Tumor Free: 0/5
[4]; [19]
  CR (complete responder): 7/10
  PR (partial responder): 3/10
  T − C: 15.4 days
  Tumor Free: 0/10
[4]; C26 tumor, 25 mg/kg oral once a day for 14 days (MTD)
  Tumor growth delay: 15.4 days
[4]; C26 tumor, oral for 14 days
  Total daily dose producing 70% complete tumor responses: 25 mg/kg
[4]; [20]
  CR: 10/10
  Deaths: 0/10
  Net Log Kill: 0.2
  PR: 0/10
  T − C: 12.6 days
[4]; [21]
  CR: 9/10
  Deaths: 1/10
  Net Log Kill: 0.6
  PR: 1/10
  T − C: 15.8 days
HT-29 colon xenograft
  CR (complete responder): 0/10
  PR (partial responder): 0/10
  Tumor Free: 0/10
[5]
  pIC50: 9.51
[6]; 1 mg BID, individual patients
  AUC(0-24) Change %: −76% and 390%
  Cmax Change %: −82% and 161%
  AUC(0-24) Fasted: 998 ng·h/mL and 133 ng·h/mL
  AUC(0-24) Fed: 244 ng·h/mL and 652 ng·h/mL
  Cmax Fasted: 181 ng/mL and 21.6 ng/mL
  Cmax Fed: 56.4 ng/mL
[6]; 2 mg BID, individual patients
  AUC(0-24) Change %: −38% and 138% and 74% and 1%
  Cmax Change %: −62% and −29% and −28% and −36%
  AUC(0-24) Fasted: 874 ng·h/mL and 526 ng·h/mL and 454 ng·h/mL
  AUC(0-24) Fed: 369 ng·h/mL and 2080 ng·h/mL and 914 ng·h/mL and 456 ng·h/mL
  Cmax Fasted: 77.5 ng/mL and 173 ng/mL and 71.9 ng/mL and 88.7 ng/mL
  Cmax Fed: 29.5 ng/mL and 122 ng/mL and 52.1 ng/mL and 56.7 ng/mL
  Tmax Fed: 8 h
[6]; 4 mg BID, individual patients
  AUC(0-24) Change %: −7% and −20% and −18% (2×)
  Cmax Change %: −25% and −49% (2×) and −57%
  AUC(0-24) Fasted: 1060 ng·h/mL and 721 ng·h/mL and 919 ng·h/mL
  AUC(0-24) Fed: 849 ng·h/mL and 590 ng·h/mL and 754 ng·h/mL
  Cmax Fasted: 65.5 ng/mL and 157 ng/mL and 114 ng/mL
  Cmax Fed: 80.7 ng/mL and 58.4 ng/mL and 68.0 ng/mL
  Tmax Fasted: 1 h
[6]; 15 mg BID, individual patients
  AUC(0-24) Change %: −14% and −67% and −27%
  Cmax Change %: −59% and −80% and −50%
  AUC(0-24) Fasted: 2880 ng·h/mL and 4880 ng·h/mL
  AUC(0-24) Fed: 4700 ng·h/mL and 957 ng·h/mL and 3580 ng·h/mL
  Cmax Fasted: 1120 ng/mL and 464 ng/mL and 641 ng/mL
  Cmax Fed: 459 ng/mL and 92.0 ng/mL and 319 ng/mL
[6]; 20 mg BID, individual patients
  AUC(0-24) Change %: −6% and −2% and −15%
  Cmax Change %: −57% and −32% and −34%
  AUC(0-24) Fasted: 4340 ng·h/mL and 6820 ng·h/mL and 3360 ng·h/mL
  AUC(0-24) Fed: 4060 ng·h/mL and 6700 ng·h/mL and 2860 ng·h/mL
  Cmax Fasted: 1180 ng/mL and 596 ng/mL
  Cmax Fed: 358 ng/mL and 797 ng/mL and 393 ng/mL
[6]; fed state
  coefficient of variation (CV) for AUC(0-24): 78%
[6]; 1 mg, Cmax Fed, 1 mg BID, individual patients
  Cmax: 33.4 ng/mL
[6]; 1 mg, Tmax Fasted, 1 mg BID, individual patients
  Tmax: 1 h
[6]; 1 mg, Tmax Fed, 1 mg BID, individual patients
  Tmax: 3 h
[6]; 2 mg, AUC(0-24) Fasted, 2 mg BID, individual patients
  AUC(0-t): 594 ng·h/mL
[6]; 2 mg, Tmax Fasted, 2 mg BID, individual patients
  Tmax: 1 h
[6]; 2 mg, Tmax Fed, 2 mg BID, individual patients
  Tmax: 6 h
[6]; 4 mg, AUC(0-24) Fasted, 4 mg BID, individual patients
  AUC(0-t): 705 ng·h/mL
[6]; 4 mg, AUC(0-24) Fed, 4 mg BID, individual patients
  AUC(0-t): 654 ng·h/mL
[6]; 4 mg, Cmax Fed, 4 mg BID, individual patients
  Cmax: 49.1 ng/mL
[6]; 4 mg, Tmax Fed, 4 mg BID, individual patients
  Tmax: 6 h
[6]; 15 mg, AUC(0-24) Fasted, 15 mg BID, individual patients
  AUC(0-t): 5460 ng·h/mL
[6]; 15 mg, Tmax Fasted, 15 mg BID, individual patients
  Tmax: 1 h
[6]; 15 mg, Tmax Fed, 15 mg BID, individual patients
  Tmax: 4 h
[6]; 20 mg, Cmax Fasted, 20 mg BID, individual patients
  Cmax: 839 ng/mL
[6]; 20 mg, Tmax Fasted, 20 mg BID, individual patients
  Tmax: 1 h
[6]; 20 mg, Tmax Fed, 20 mg BID, individual patients
  Tmax: 4 h
[6]; taken with a high fat meal
  delay of peak plasma levels: 2 to 7 h
H23 NSCL xenograft
  CR (complete responder): 0/8
  PR (partial responder): 1/8
  T − C: 13.9 days
  Tumor Free: 0/8
[7]
  pIC50: 9.23
[8]
  % ROI Rat: 72.06%
